Measurements published in BigSolDB 2.1.

Work on `CCn1c2ccccc2c2cc(-n3nncc3-c3ccccc3)ccc21` yielded a solubility (mole fraction) (in acetonitrile, 281.7 K) of 0.00188, a solubility (mole fraction) (in acetonitrile, 287.8 K) of 0.00249 and a solubility (mole fraction) (in acetonitrile, 295.4 K) of 0.00335. The solubility (mole fraction) (in acetonitrile, 304.8 K) was 0.00485, the solubility (mole fraction) (in acetonitrile, 312.3 K) was 0.0066 and the solubility (mole fraction) (in acetonitrile, 319.4 K) was 0.00933. The solubility (mole fraction) (in acetonitrile, 325 K) was 0.0125, the solubility (mole fraction) (in ethanol, 279.2 K) was 0.000406 and the solubility (mole fraction) (in ethanol, 281.5 K) was 0.000428. The solubility (mole fraction) (in ethanol, 285.8 K) was 0.000529, the solubility (mole fraction) (in ethanol, 288.8 K) was 0.000598 and the solubility (mole fraction) (in ethanol, 291.9 K) was 0.000685. It also gave a solubility (mole fraction) (in ethanol, 297.2 K) of 0.000847, a solubility (mole fraction) (in ethanol, 307.8 K) of 0.00136 and a solubility (mole fraction) (in ethanol, 313 K) of 0.0017. It also gave a solubility (mole fraction) (in ethanol, 318.9 K) of 0.00222, a solubility (mole fraction) (in ethanol, 323.2 K) of 0.00274 and a solubility (mole fraction) (in ethanol, 329 K) of 0.00376. The solubility (mole fraction) (in ethyl acetate, 278.9 K) was 0.00403, the solubility (mole fraction) (in ethyl acetate, 282.5 K) was 0.00438 and the solubility (mole fraction) (in ethyl acetate, 288.6 K) was 0.00531. For the same molecule, the solubility (mole fraction) (in ethyl acetate, 293.8 K) was 0.0062, the solubility (mole fraction) (in ethyl acetate, 296.6 K) was 0.00681 and the solubility (mole fraction) (in ethyl acetate, 301.9 K) was 0.00793. It also gave a solubility (mole fraction) (in ethyl acetate, 306.3 K) of 0.00903, a solubility (mole fraction) (in ethyl acetate, 310.5 K) of 0.0103 and a solubility (mole fraction) (in ethyl acetate, 318 K) of 0.0129. For the same molecule, the solubility (mole fraction) (in ethyl acetate, 322.8 K) was 0.0154, the solubility (mole fraction) (in ethyl acetate, 326.9 K) was 0.0182 and the solubility (mole fraction) (in isopropanol, 279.4 K) was 0.000218. The solubility (mole fraction) (in isopropanol, 290.4 K) was 0.000352, the solubility (mole fraction) (in isopropanol, 294.2 K) was 0.000467 and the solubility (mole fraction) (in isopropanol, 298.4 K) was 0.000571. It also gave a solubility (mole fraction) (in isopropanol, 300.9 K) of 0.000684, a solubility (mole fraction) (in isopropanol, 304.6 K) of 0.000794 and a solubility (mole fraction) (in isopropanol, 307.7 K) of 0.000913. The solubility (mole fraction) (in isopropanol, 311 K) was 0.00113, the solubility (mole fraction) (in isopropanol, 319.5 K) was 0.00181 and the solubility (mole fraction) (in isopropanol, 324.1 K) was 0.00226. The solubility (mole fraction) (in isopropanol, 330.2 K) was 0.00329, the solubility (mole fraction) (in methanol, 279.3 K) was 0.000409 and the solubility (mole fraction) (in methanol, 281.9 K) was 0.000468. It also gave a solubility (mole fraction) (in methanol, 288.2 K) of 0.000591, a solubility (mole fraction) (in methanol, 300.7 K) of 0.000949 and a solubility (mole fraction) (in methanol, 306.1 K) of 0.00116. The solubility (mole fraction) (in methanol, 314.8 K) was 0.00165, the solubility (mole fraction) (in methanol, 320.7 K) was 0.00222 and the solubility (mole fraction) (in methanol, 325 K) was 0.00279. It also gave a solubility (mole fraction) (in n-butanol, 280.1 K) of 0.000585, a solubility (mole fraction) (in n-butanol, 283.7 K) of 0.000684 and a solubility (mole fraction) (in n-butanol, 288.6 K) of 0.000848. The solubility (mole fraction) (in n-butanol, 292.7 K) was 0.00111, the solubility (mole fraction) (in n-butanol, 298.2 K) was 0.00138 and the solubility (mole fraction) (in n-butanol, 307.4 K) was 0.00221. It also gave a solubility (mole fraction) (in n-butanol, 312.6 K) of 0.00276, a solubility (mole fraction) (in n-butanol, 320.4 K) of 0.00401 and a solubility (mole fraction) (in n-butanol, 331.5 K) of 0.00688. For the same molecule, the solubility (mole fraction) (in n-propanol, 283 K) was 0.000556, the solubility (mole fraction) (in n-propanol, 285.1 K) was 0.00067 and the solubility (mole fraction) (in n-propanol, 288.8 K) was 0.000774. The solubility (mole fraction) (in n-propanol, 297.1 K) was 0.00111, the solubility (mole fraction) (in n-propanol, 307 K) was 0.00177 and the solubility (mole fraction) (in n-propanol, 312.2 K) was 0.00223. The solubility (mole fraction) (in n-propanol, 319.4 K) was 0.00314, the solubility (mole fraction) (in n-propanol, 325.2 K) was 0.00418 and the solubility (mole fraction) (in n-propanol, 330.2 K) was 0.00554. For the same molecule, the solubility (mole fraction) (in sec-butanol, 279.9 K) was 0.000287, the solubility (mole fraction) (in sec-butanol, 283.2 K) was 0.000366 and the solubility (mole fraction) (in sec-butanol, 291.7 K) was 0.000592. For the same molecule, the solubility (mole fraction) (in sec-butanol, 294.6 K) was 0.00073, the solubility (mole fraction) (in sec-butanol, 298.4 K) was 0.000892 and the solubility (mole fraction) (in sec-butanol, 306.7 K) was 0.00149. For the same molecule, the solubility (mole fraction) (in sec-butanol, 315.7 K) was 0.0024, the solubility (mole fraction) (in sec-butanol, 319.1 K) was 0.00295 and the solubility (mole fraction) (in sec-butanol, 321.3 K) was 0.0034. For the same molecule, the solubility (mole fraction) (in sec-butanol, 329.5 K) was 0.0053.
